In PubChem BioAssay AID1919016 (Molecular Pharmacology Branch, DTP, NCI, 2023):
pIC50: −log10 of the molar value.

Test system: NCI-H196 complex spheroid growth, percent test/control
Assay: Anticancer human tumor NCI-H196 cell line growth inhibition [AhR];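 also: seven days of drug exposure starting three days after plating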;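 as to viability, T/C: 100% = DMSO vehicle control wells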
Conditions: for pIC50: curve of first compound; for viability, T/C: stronger effect = lower value
Summary of the method: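 Spheroids combined tumor cells with HUVEC endothelial cells and human MSCs as stroma. AhR antagonists were paired with standard or investigational drugs, each dosed in half-log steps down from near clinical Cmax, or from 10 microM where Cmax was unknown.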

[1] = second compound 0.1 µM, first compound 0.00949 µM
[2] = second compound 0.1 µM, first compound 0.03 µM
[3] = second compound 0.1 µM, first compound 0.0949 µM
[4] = second compound 0.1 µM, first compound 0.3 µM
[5] = second compound 0.316 µM, first compound 0.00949 µM
[6] = second compound 0.316 µM, first compound 0.03 µM
[7] = second compound 0.316 µM, first compound 0.0949 µM
[8] = second compound 0.316 µM, first compound 0.3 µM
[9] = second compound 1 µM, first compound 0.00949 µM
[10] = second compound 1 µM, first compound 0.03 µM
[11] = second compound 1 µM, first compound 0.0949 µM
[12] = second compound 1 µM, first compound 0.3 µM
[13] = second compound 3.16 µM, first compound 0.00949 µM
[14] = second compound 3.16 µM, first compound 0.03 µM
[15] = second compound 3.16 µM, first compound 0.0949 µM
[16] = second compound 3.16 µM, first compound 0.3 µM
[17] = second compound 10 µM, first compound 0.00949 µM
[18] = second compound 10 µM, first compound 0.03 µM
[19] = second compound 10 µM, first compound 0.0949 µM
[20] = second compound 10 µM, first compound 0.3 µM

SMILES: O=C(C=Cn1cnc(-c2cc(C(F)(F)F)cc(C(F)(F)F)c2)n1)NNc1cnccn1 + Cc1cncc(-c2nc(NCCc3c[nH]c4ccccc34)c3ncn(C(C)C)c3n2)c1
- pIC50 (second compound 0.1 µM): 7.35
- pIC50 (second compound 0.316 µM): 7.47
- pIC50 (second compound 1 µM): 7.38
- pIC50 (second compound 3.16 µM): 7.40
- pIC50 (second compound 10 µM): 7.41
- viability, T/C [1]: 75.3%
- viability, T/C [2]: 65%
- viability, T/C [3]: 20.6%
- viability, T/C [4]: 8.92%
- viability, T/C (second compound 0.1 µM, first compound 0.949 µM): 8.7%
- viability, T/C (second compound 0.1 µM, first compound 3 µM): 5.72%
- viability, T/C [5]: 73.5%
- viability, T/C [6]: 52.7%
- viability, T/C [7]: 25.1%
- viability, T/C [8]: 9.13%
- viability, T/C (second compound 0.316 µM, first compound 0.949 µM): 9.31%
- viability, T/C (second compound 0.316 µM, first compound 3 µM): 8.45%
- viability, T/C [9]: 71%
- viability, T/C [10]: 59.2%
- viability, T/C [11]: 27.9%
- viability, T/C [12]: 13%
- viability, T/C (second compound 1 µM, first compound 0.949 µM): 8.4%
- viability, T/C (second compound 1 µM, first compound 3 µM): 7.77%
- viability, T/C [13]: 80%
- viability, T/C [14]: 59.4%
- viability, T/C [15]: 22.4%
- viability, T/C [16]: 10.5%
- viability, T/C (second compound 3.16 µM, first compound 0.949 µM): 8.06%
- viability, T/C (second compound 3.16 µM, first compound 3 µM): 8.49%
- viability, T/C [17]: 65.2%
- viability, T/C [18]: 62.8%
- viability, T/C [19]: 4.24%
- viability, T/C [20]: 2.39%
- viability, T/C (second compound 10 µM, first compound 0.949 µM): 8.19%
- viability, T/C (second compound 10 µM, first compound 3 µM): 5.29%

SMILES: COc1cc(Nc2ncc3c(n2)-c2ccc(Cl)cc2C(c2c(F)cccc2OC)=NC3)ccc1C(=O)O + CC(CO)NC(=O)c1cc(-c2ccc(Cl)cc2)nn(-c2cnn(C)c2)c1=O
- pIC50 (second compound 0.1 µM): < 5.00
- pIC50 (second compound 0.316 µM): < 5.00
- pIC50 (second compound 1 µM): < 5.00
- pIC50 (second compound 3.16 µM): < 5.00
- pIC50 (second compound 10 µM): < 5.00
- viability, T/C (second compound 0.1 µM, first compound 0.0316 µM): 91.5%
- viability, T/C (second compound 0.1 µM, first compound 0.1 µM): 107%
- viability, T/C (second compound 0.1 µM, first compound 0.316 µM): 116%
- viability, T/C (second compound 0.1 µM, first compound 1 µM): 112%
- viability, T/C (second compound 0.1 µM, first compound 3.16 µM): 111%
- viability, T/C (second compound 0.1 µM, first compound 10 µM): 138%
- viability, T/C (second compound 0.316 µM, first compound 0.0316 µM): 103%
- viability, T/C (second compound 0.316 µM, first compound 0.1 µM): 106%
- viability, T/C (second compound 0.316 µM, first compound 0.316 µM): 119%
- viability, T/C (second compound 0.316 µM, first compound 1 µM): 113%
- viability, T/C (second compound 0.316 µM, first compound 3.16 µM): 127%
- viability, T/C (second compound 0.316 µM, first compound 10 µM): 116%
- viability, T/C (second compound 1 µM, first compound 0.0316 µM): 101%
- viability, T/C (second compound 1 µM, first compound 0.1 µM): 98.9%
- viability, T/C (second compound 1 µM, first compound 0.316 µM): 112%
- viability, T/C (second compound 1 µM, first compound 1 µM): 111%
- viability, T/C (second compound 1 µM, first compound 3.16 µM): 136%
- viability, T/C (second compound 1 µM, first compound 10 µM): 134%
- viability, T/C (second compound 3.16 µM, first compound 0.0316 µM): 107%
- viability, T/C (second compound 3.16 µM, first compound 0.1 µM): 108%
- viability, T/C (second compound 3.16 µM, first compound 0.316 µM): 121%
- viability, T/C (second compound 3.16 µM, first compound 1 µM): 115%
- viability, T/C (second compound 3.16 µM, first compound 3.16 µM): 130%
- viability, T/C (second compound 3.16 µM, first compound 10 µM): 132%
- viability, T/C (second compound 10 µM, first compound 0.0316 µM): 107%
- viability, T/C (second compound 10 µM, first compound 0.1 µM): 109%
- viability, T/C (second compound 10 µM, first compound 0.316 µM): 126%
- viability, T/C (second compound 10 µM, first compound 1 µM): 122%
- viability, T/C (second compound 10 µM, first compound 3.16 µM): 127%
- viability, T/C (second compound 10 µM, first compound 10 µM): 131%

SMILES: CC(C)CC(NC(=O)C(Cc1ccccc1)NC(=O)c1cnccn1)B(O)O (stereo not given) + Cc1ccccc1N=Nc1ccc(NC(=O)c2ccnn2C)c(C)c1
- pIC50 (second compound 0.1 µM): 7.84
- pIC50 (second compound 0.316 µM): 7.81
- pIC50 (second compound 1 µM): 7.80
- pIC50 (second compound 3.16 µM): 7.80
- pIC50 (second compound 10 µM): 7.77
- viability, T/C (second compound 0.1 µM, first compound 0.000949 µM): 97.6%
- viability, T/C (second compound 0.1 µM, first compound 0.003 µM): 101%
- viability, T/C [1]: 74.9%
- viability, T/C [2]: 6.41%
- viability, T/C [3]: 4.21%
- viability, T/C [4]: 5.04%
- viability, T/C (second compound 0.316 µM, first compound 0.000949 µM): 93.6%
- viability, T/C (second compound 0.316 µM, first compound 0.003 µM): 96.4%
- viability, T/C [5]: 83.1%
- viability, T/C [6]: 6.9%
- viability, T/C [7]: 4.16%
- viability, T/C [8]: 3.98%
- viability, T/C (second compound 1 µM, first compound 0.000949 µM): 90.8%
- viability, T/C (second compound 1 µM, first compound 0.003 µM): 101%
- viability, T/C [9]: 83%
- viability, T/C [10]: 8.93%
- viability, T/C [11]: 4.78%
- viability, T/C [12]: 6.96%
- viability, T/C (second compound 3.16 µM, first compound 0.000949 µM): 97.4%
- viability, T/C (second compound 3.16 µM, first compound 0.003 µM): 95.8%
- viability, T/C [13]: 83.8%
- viability, T/C [14]: 8.44%
- viability, T/C [15]: 3.34%
- viability, T/C [16]: 3.4%
- viability, T/C (second compound 10 µM, first compound 0.000949 µM): 89.2%
- viability, T/C (second compound 10 µM, first compound 0.003 µM): 90.5%
- viability, T/C [17]: 85.1%
- viability, T/C [18]: 14.6%
- viability, T/C [19]: 8.98%
- viability, T/C [20]: 5.84%
